Results as given in US20220323406A1, “METHODS AND COMPOSITIONS FOR DIFFERENTIATING STEM CELLS” (Massachusetts Institute of Technology, priority 2019, published 2022).

Legend:
[1] = test system: ENR+CD organoids (ISC to Paneth cell differentiation); experiment: Primary screen: CCh-stimulated lysozyme secretion LYZ.S, 2.5-D 384-well ENR+CD organoid differentiation; assay type: cell-based, mouse; settings: primary screen
Text: (§1) High-throughput screening.

[2] = test system: ENR+CD organoids (ISC to Paneth cell differentiation); experiment: Secondary (validation) screen: LYZ.S CCh-stimulated lysozyme secretion, 2.5-D 384-well ENR+CD organoids; assay type: cell-based, mouse; settings: 6-day ENR+CD, vs ENR+CD+DMSO
Description: (§2) Drugs were tested at a narrowed dose range around each treatment's identified optimal dose from the primary screen (4× below, 2× above and below).
as §1
(§3) Secondary lysozyme secretion assay screen. Confirmatory secondary screening with primary hits was performed using the above 384-well plate method. The screen was conducted with 4-plate replicates with a base media of ENR+CD. Media was supplemented with compound at day 0 and day 3 (n=8 well replicates per dose) at four different doses: two-fold above, two-fold below, and four-fold below the optimal final dose for each respective treatment. Additionally, each plate carried a large number of ENR+DMSO or ENR+CD+DMSO (vehicle) control wells (n=100 for ATP, and n=25 for LYZ.NS and LYZ.S) for robust normalization. ATP, non-stimulated lysozyme activity and CCh-stimulated lysozyme activity was again measured and the collected data was again processed in a custom R-script, per primary screen with slight modification. Values were log10 transformed, and a plate-wise FC was calculated for each well based on the median value of ENR+CD+DMSO (vehicle) control wells to normalize plate to plate variability.

[3] = test system: ENR+CD organoids (ISC to Paneth cell differentiation); experiment: Secondary (validation) screen: LYZ.NS basal lysozyme secretion, 2.5-D 384-well ENR+CD organoids; assay type: cell-based, mouse; settings: for Dose.FC.LYZ.NS / Z.LYZ.NS / repSSMD.LYZ.NS: 6-day ENR+CD, vs ENR+CD+DMSO
Description: as §2, §1, §3

[4] = test system: ENR+CD organoids; experiment: Secondary (validation) screen: ATP (CTG) assay, 2.5-D 384-well ENR+CD organoids; assay type: cell-based, mouse; settings: 6-day ENR+CD, vs ENR+CD+DMSO
Description: as §2, §1, §3

[5] = test system: ENR+CD organoids (ISC to Paneth cell differentiation); experiment: Primary screen: basal (non-stimulated) lysozyme secretion LYZ.NS, 2.5-D 384-well ENR+CD organoid differentiation; assay type: cell-based, mouse; settings: for Z.LYZ.NS: standard z score
Text: as §1

[6] = test system: ENR+CD organoids; experiment: Primary screen: ATP (CellTiter-Glo 3D, CTG) cell number/viability, 2.5-D 384-well ENR+CD organoids; settings: primary screen; for Z.CTG: standard z score;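 for all read-outs here: compounds given at plating and again on day 3 over a 6-day differentiation from ENR+CV stem-cell-enriched precursors, ATP measured on day 6, plate median as control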
[7] = dose 0.08 uM, FC vs plate median
[8] = dose 0.40 uM, FC vs plate median
[9] = dose 2.00 uM, FC vs plate median
[10] = dose 10.00 uM, FC vs plate median
[11] = dose 0.08 uM, FC relative to plate median
[12] = dose 0.40 uM, FC relative to plate median
[13] = dose 2.00 uM, FC relative to plate median
[14] = dose 10.00 uM, FC relative to plate median

Cc1cn(-c2cc(NC(=O)c3ccc(C)c(Nc4nccc(-c5cccnc5)n4)c3)cc(C(F)(F)F)c2)cn1 [Nilotinib (AMN-107), Nilotinib, reference compound] gave a Dose.FC.LYZ.S [1, 7] of 0.235 log2 fold change, a Dose.FC.LYZ.S [1, 8] of 0.293 log2 fold change and a Dose.FC.LYZ.S [1, 9] of 0.033 log2 fold change. For the same compound, the Dose.FC.LYZ.S [1, 10] was −0.197 log2 fold change, the Dose.FC.LYZ.S ([2]; 0.10 uM) was 0.044 log2 fold change and the Dose.FC.LYZ.S ([2]; 0.20 uM) was 0.117 log2 fold change. It also gave a Dose.FC.LYZ.S ([2]; 0.40 uM) of −0.007 log2 fold change, a Dose.FC.LYZ.S ([2]; 0.80 uM) of 0.143 log2 fold change and a Dose.FC.LYZ.NS ([3]; 0.10 uM) of 0.092 log2 fold change. It also gave a Dose.FC.LYZ.NS ([3]; 0.20 uM) of 0.161 log2 fold change, a Dose.FC.LYZ.NS ([3]; 0.40 uM) of 0.101 log2 fold change and a Dose.FC.LYZ.NS ([3]; 0.80 uM) of 0.165 log2 fold change. For the same compound, the “validated doses in secondary screen (SSMD above cutoff in both LYZ assays)” value ([3]; LYZ.NS and LYZ.S) was “multiple validated doses”, the “biological potency compared with Bosutinib” value ([3]; LYZ.NS and LYZ.S mean fold change) was “more biologically potent” and the Dose.FC.CTG ([4]; 0.10 uM) was 0.092 log2 fold change. The Dose.FC.CTG ([4]; 0.20 uM) was 0.122 log2 fold change, the Dose.FC.CTG ([4]; 0.40 uM) was 0.141 log2 fold change and the Dose.FC.CTG ([4]; 0.80 uM) was 0.233 log2 fold change. It also gave a Z.LYZ.NS ([5]; primary screen, dose 0.08 uM) of 1.703, a Z.LYZ.NS ([5]; primary screen, dose 0.40 uM) of 1.412 and a Z.LYZ.NS ([5]; primary screen, dose 2.00 uM) of 0.742. The Z.LYZ.NS ([5]; primary screen, dose 10.00 uM) was −0.806, the Dose.FC.LYZ.NS ([5]; primary screen, dose 0.08 uM, FC vs plate median) was 0.196 log2 fold change and the Dose.FC.LYZ.NS ([5]; primary screen, dose 0.40 uM, FC vs plate median) was 0.162 log2 fold change. The Dose.FC.LYZ.NS ([5]; primary screen, dose 2.00 uM, FC vs plate median) was 0.085 log2 fold change, the Dose.FC.LYZ.NS ([5]; primary screen, dose 10.00 uM, FC vs plate median) was −0.093 log2 fold change and the Dose.FC.CTG [6, 7] was 0.322 log2 fold change. The Dose.FC.CTG [6, 8] was 0.348 log2 fold change, the Dose.FC.CTG [6, 9] was 0.242 log2 fold change and the Dose.FC.CTG [6, 10] was −0.012 log2 fold change.

With NC(=O)c1ccc(-c2nc(-c3ccccn3)c(-c3ccc4c(c3)OCO4)[nH]2)cc1 [SB431542] the Dose.FC.LYZ.S [1, 11] was 0.135 log2 fold change, the Dose.FC.LYZ.S [1, 12] was 0.309 log2 fold change and the Dose.FC.LYZ.S [1, 13] was 0.223 log2 fold change. For the same compound, the Dose.FC.LYZ.S [1, 14] was 0.126 log2 fold change, the Dose.FC.LYZ.S ([2]; 0.06 uM) was 0.067 log2 fold change and the Z.LYZ.S ([2]; 0.06 uM) was 0.514. The repSSMD.LYZ.S ([2]; 0.06 uM) was 0.855, the Dose.FC.LYZ.S ([2]; 0.24 uM) was 0.027 log2 fold change and the Z.LYZ.S ([2]; 0.24 uM) was 0.211. The repSSMD.LYZ.S ([2]; 0.24 uM) was 0.301, the Dose.FC.LYZ.S ([2]; 0.48 uM) was −0.050 log2 fold change and the Z.LYZ.S ([2]; 0.48 uM) was −0.387. It also gave a repSSMD.LYZ.S ([2]; 0.48 uM) of −0.449, a Dose.FC.LYZ.S ([2]; […]) of 0.072 log2 fold change and a Dose.FC.LYZ.NS ([3]; 0.06 uM) of 0.089 log2 fold change. It also gave a Z.LYZ.NS ([3]; 0.06 uM) of 0.709, a repSSMD.LYZ.NS ([3]; 0.06 uM) of 1.073 and a Dose.FC.LYZ.NS ([3]; 0.24 uM) of 0.105 log2 fold change. The Z.LYZ.NS ([3]; 0.24 uM) was 0.838, the repSSMD.LYZ.NS ([3]; 0.24 uM) was 0.830 and the Dose.FC.LYZ.NS ([3]; 0.48 uM) was −0.016 log2 fold change. For the same compound, the Z.LYZ.NS ([3]; 0.48 uM) was −0.128, the repSSMD.LYZ.NS ([3]; 0.48 uM) was −0.149 and the Dose.FC.LYZ.NS ([3]; […]) was 0.116 log2 fold change. It also gave a Dose.FC.CTG ([4]; 0.06 uM) of 0.160 log2 fold change, a Z.CTG ([4]; 0.06 uM) of 1.439 and a repSSMD.CTG ([4]; 0.06 uM) of 0.654. It also gave a Dose.FC.CTG ([4]; 0.24 uM) of 0.023 log2 fold change, a Z.CTG ([4]; 0.24 uM) of 0.206 and a repSSMD.CTG ([4]; 0.24 uM) of 0.141. For the same compound, the Dose.FC.CTG ([4]; 0.48 uM) was 0.083 log2 fold change, the Z.CTG ([4]; 0.48 uM) was 0.752 and the repSSMD.CTG ([4]; 0.48 uM) was 0.527. For the same compound, the Dose.FC.CTG ([4]; […]) was 0.120 log2 fold change, the “primary screen hit call (SSMD and z-scored FC cutoffs in both LYZ assays)” value ([5]; LYZ.NS and LYZ.S, 0.08-10 uM, 6 days ENR+CD) was “selected as a hit” and the “performance on both LYZ assays compared with LY215799” value ([5]; primary screen) was “performed almost identically to LY215799”. The Dose.FC.LYZ.NS ([5]; primary screen, dose 0.08 uM, FC relative to plate median) was 0.141 log2 fold change, the Z.LYZ.NS ([5]; primary screen, dose 0.08 uM) was 1.225 and the Dose.FC.LYZ.NS ([5]; primary screen, dose 0.40 uM, FC relative to plate median) was 0.174 log2 fold change. For the same compound, the Z.LYZ.NS ([5]; primary screen, dose 0.40 uM) was 1.514, the Dose.FC.LYZ.NS ([5]; primary screen, dose 2.00 uM, FC relative to plate median) was 0.187 log2 fold change and the Z.LYZ.NS ([5]; primary screen, dose 2.00 uM) was 1.632. For the same compound, the Dose.FC.LYZ.NS ([5]; primary screen, dose 10.00 uM, FC relative to plate median) was 0.040 log2 fold change, the Z.LYZ.NS ([5]; primary screen, dose 10.00 uM) was 0.346 and the “increase of cell viability compared with LY215799” value [6] was “outperformed LY215799”. The Dose.FC.CTG [6, 11] was 0.380 log2 fold change, the Z.CTG ([6]; dose 0.08 uM) was 0.907 and the Dose.FC.CTG [6, 12] was 0.473 log2 fold change. For the same compound, the Z.CTG ([6]; dose 0.40 uM) was 1.130, the Dose.FC.CTG [6, 13] was 0.316 log2 fold change and the Z.CTG ([6]; dose 2.00 uM) was 0.754. The Dose.FC.CTG [6, 14] was 0.155 log2 fold change and the Z.CTG ([6]; dose 10.00 uM) was 0.370.
